≈ marks a conversion by molar mass, not a printed value. One block for each molecule: values may come before it.
Key:
[1] = Inhibition of NS5A in HCV genotype-1a infected in human HuH7 cells by luciferase reporter gene assay; assay type: cell-based, Hepatitis C virus subtype 1a; conditions: Hepatitis C virus, Huh-7
[2] = Inhibition of HCV genotype-1a NS5A; design: species or system Hepatitis C virus subtype 1a
[3] = Inhibition of NS5A in HCV genotype-1b infected in human HuH7 cells by luciferase reporter gene assay; assay type: cell-based, Hepatitis C virus subtype 1b; conditions: Hepatitis C virus, Huh-7
[4] = Inhibition of HCV genotype-1b NS5A; design: species or system Hepatitis C virus subtype 1b
[5] = Oral bioavailability in Sprague-Dawley rat at 10 mg/kg; assay type: ADME, organism-based; conditions: in vivo
[6] = Tmax in Sprague-Dawley rat at 10 mg/kg, po; assay type: ADME, organism-based; design: dose 10 mg/kg, route oral; conditions: in vivo
[7] = AUClast in Sprague-Dawley rat at 2 mg/kg, iv; assay type: ADME, organism-based; design: time 0 - last, dose 2 mg/kg, route intravenous; conditions: plasma
[8] = Volume of distribution at steady state in Sprague-Dawley rat at 2 mg/kg, iv; assay type: ADME, organism-based; design: dose 2 mg/kg, route intravenous; conditions: in vivo, read-out: Vdss
[9] = Drug uptake in Sprague-Dawley rat liver at 10 mg/kg, po after 4 hrs; assay type: ADME, organism-based; design: dose 10 mg/kg, route oral; conditions: read-out: Drug uptake
[10] = Cmax in Sprague-Dawley rat at 10 mg/kg, po; assay type: ADME, organism-based; design: dose 10 mg/kg, route oral; conditions: in vivo
[11] = Half life in Sprague-Dawley rat at 2 mg/kg, iv; assay type: ADME, organism-based; design: dose 2 mg/kg, route intravenous; conditions: in vivo
[12] = AUClast in Sprague-Dawley rat at 10 mg/kg, po; assay type: ADME, organism-based; design: time 0 - last, dose 10 mg/kg, route oral; conditions: plasma
[13] = Clearance in Sprague-Dawley rat at 2 mg/kg, iv; assay type: ADME, organism-based; design: dose 2 mg/kg, route intravenous; conditions: in vivo
[14] = Plasma concentration in Sprague-Dawley rat at 10 mg/kg, po after 4 hrs; assay type: ADME, organism-based; design: dose 10 mg/kg, route oral
[15] = Solubility of the compound at pH 7.4 by UV detection method; assay type: physicochemical; conditions: buffer
[16] = Drug uptake in Sprague-Dawley rat liver at 5 mg/kg, po after 4 hrs; assay type: ADME, organism-based; design: dose 5 mg/kg, route oral; conditions: read-out: Drug uptake
[17] = Clearance in Sprague-Dawley rat at 1 mg/kg, iv; assay type: ADME, organism-based; design: dose 1 mg/kg, route intravenous; conditions: in vivo
[18] = Cmax in Sprague-Dawley rat at 5 mg/kg, po; assay type: ADME, organism-based; design: dose 5 mg/kg, route oral; conditions: in vivo
[19] = Volume of distribution at steady state in Sprague-Dawley rat at 1 mg/kg, iv; assay type: ADME, organism-based; design: dose 1 mg/kg, route intravenous; conditions: in vivo, read-out: Vdss
[20] = Plasma concentration in Sprague-Dawley rat […] at 5 mg/kg, po after 4 hrs; assay type: ADME, organism-based; design: dose 5 mg/kg, route oral
[21] = Half life in Sprague-Dawley rat at 1 mg/kg, iv; assay type: ADME, organism-based; design: dose 1 mg/kg, route intravenous; conditions: in vivo
[22] = Tmax in Sprague-Dawley rat at 5 mg/kg, po; assay type: ADME, organism-based; design: dose 5 mg/kg, route oral; conditions: in vivo
[23] = Oral bioavailability in Sprague-Dawley rat at 5 mg/kg; assay type: ADME, organism-based; conditions: in vivo
[24] = AUClast in Sprague-Dawley rat at 5 mg/kg, po; assay type: ADME, organism-based; design: time 0 - last, dose 5 mg/kg, route oral; conditions: plasma
[25] = AUClast in Sprague-Dawley rat at 1 mg/kg, iv; assay type: ADME, organism-based; design: time 0 - last, dose 1 mg/kg, route intravenous; conditions: plasma
[26] = Half life in cynomolgus monkey at 1 mg/kg, iv; assay type: ADME, organism-based, Macaca fascicularis; design: dose 1 mg/kg, route intravenous; conditions: in vivo
[27] = Cmax in cynomolgus monkey at 5 mg/kg, po; assay type: ADME, organism-based, Macaca fascicularis; design: dose 5 mg/kg, route oral; conditions: in vivo
[28] = Tmax in cynomolgus monkey at 5 mg/kg, po; assay type: ADME, organism-based, Macaca fascicularis; design: dose 5 mg/kg, route oral; conditions: in vivo
[29] = Volume of distribution at steady state in cynomolgus monkey at 1 mg/kg, iv; assay type: ADME, organism-based, Macaca fascicularis; design: dose 1 mg/kg, route intravenous; conditions: in vivo, read-out: Vdss
[30] = AUClast in cynomolgus monkey at 5 mg/kg, po; assay type: ADME, organism-based, Macaca fascicularis; design: time 0 - last, dose 5 mg/kg, route oral; conditions: plasma
[31] = Clearance in cynomolgus monkey at 1 mg/kg, iv; assay type: ADME, organism-based, Macaca fascicularis; design: dose 1 mg/kg, route intravenous; conditions: in vivo
[32] = Cmax in Sprague-Dawley rat at 100 mg/kg, po; assay type: ADME, organism-based; design: dose 100 mg/kg, route oral; conditions: in vivo
[33] = Tmax in Sprague-Dawley rat at 100 mg/kg, po; assay type: ADME, organism-based; design: dose 100 mg/kg, route oral; conditions: in vivo
[34] = AUClast in Sprague-Dawley rat at 100 mg/kg, po; assay type: ADME, organism-based; design: time 0 - last, dose 100 mg/kg, route oral; conditions: plasma
[35] = Plasma concentration in Sprague-Dawley rat […] at 100 mg/kg, po after 4 hrs; assay type: ADME, organism-based; design: dose 100 mg/kg, route oral
[36] = AUClast in cynomolgus monkey at 1 mg/kg, iv; assay type: ADME, organism-based, Macaca fascicularis; design: dose 1 mg/kg, route intravenous, time 0 - last; conditions: plasma
[37] = Oral bioavailability in cynomolgus monkey at 5 mg/kg; assay type: ADME, organism-based, Macaca fascicularis; conditions: in vivo

SMILES: COC(=O)N[C@H](C(=O)N1CCC[C@H]1c1ncc(-c2cc(F)c(N3CCC(c4cnc([C@@H]5CCCN5C(=O)[C@@H](NC(=O)OC)C(C)C)[nH]4)CC3)c(F)c2)[nH]1)C(C)C
EC50 [1]: 3.8 nM
solubility [15]: 87.5 µg/mL (≈ 112 µM)
EC50 [3]: 0.054 nM

SMILES: COC(=O)N[C@@H](C(=O)N1CCC[C@H]1c1ncc(-c2cc(F)c(N3CCC(c4cnc([C@@H]5CCCN5C(=O)[C@H](NC(=O)OC)C(C)C)[nH]4)CC3)c(F)c2)[nH]1)C(C)C
EC50 [1]: > 100 nM
EC50 [3]: > 3.7 nM

SMILES: COC(=O)N[C@H](C(=O)N1CCC[C@H]1c1ncc(-c2cc(F)c(N3CCC(C)(c4cnc([C@@H]5CCCN5C(=O)[C@@H](NC(=O)OC)C(C)C)[nH]4)CC3)c(F)c2)[nH]1)C(C)C
EC50 [1]: > 100 nM
EC50 [3]: 0.081 nM

SMILES: COC(=O)N[C@H](C(=O)N1CCC[C@H]1c1ncc(-c2ccc(C34CCC(c5cnc([C@@H]6CCCN6C(=O)[C@@H](NC(=O)OC)C(C)C)[nH]5)(CC3)CC4)cc2)[nH]1)C(C)C
concentration at 4 h [16]: 2590 ng/mL
clearance [17]: 15.7 mL/min/kg
Cmax [18]: 980 ng/mL
half-life [26]: 1.24 h
Cmax [27]: 1400 ng/mL
Vd [19]: 1.31 L/kg
concentration at 4 h [20]: 653 ng/mL
half-life [21]: 1.2 h
Tmax [28]: 4 h
Vd [29]: 0.64 L/kg
AUC(0-t) [30]: 7930 ng·h/mL
EC50 [1]: 1.4 nM
clearance [31]: 6.5 mL/min/kg
solubility [15]: 45 µg/mL (≈ 58.4 µM)
Tmax [22]: 1.17 h
Cmax [32]: 19100 ng/mL
Tmax [33]: 2 h
AUC(0-t) [34]: 242000 ng·h/mL
concentration at 4 h [35]: 15800 ng/mL
bioavailability [23]: 124%
EC50 [3]: 0.06 nM
AUC(0-t) [36]: 2570 ng·h/mL
bioavailability [37]: 61.1%
AUC(0-t) [24]: 6580 ng·h/mL
AUC(0-t) [25]: 1050 ng·h/mL

SMILES: COC(=O)N[C@H](C(=O)N1CCC[C@H]1c1ncc(-c2cc(F)c(N3CCC(c4cnc([C@@H]5CCCCN5C(=O)[C@@H](NC(=O)OC)C(C)C)[nH]4)CC3)c(F)c2)[nH]1)C(C)C
EC50 [1]: 34 nM
EC50 [3]: 0.09 nM

SMILES: COC(=O)N[C@H](C(=O)N(C)[C@@H](C)c1ncc(C2CCN(c3c(F)cc(-c4cnc([C@@H]5CCCN5C(=O)[C@@H](NC(=O)OC)C(C)C)[nH]4)cc3F)CC2)[nH]1)C(C)C
EC50 [1]: > 100 nM
EC50 [3]: 0.54 nM

Second part, the molecule after the results:

EC50 [1]: 0.079 nM
EC50 [2]: 0.05 nM
EC50 [3]: 0.009 nM
EC50 [4]: 0.009 nM
SMILES: COC(=O)N[C@@H](C(=O)N1CCC[C@H]1c1ncc(-c2ccc(-c3ccc(-c4cnc([C@@H]5CCCN5C(=O)[C@H](NC(=O)OC)c5ccccc5)[nH]4)cc3)cc2)[nH]1)c1ccccc1

bioavailability [5]: 1.2%
Tmax [6]: 0.67 h
AUC(0-t) [7]: 2060 ng·h/mL
Vd [8]: 1.39 L/kg
EC50 [1]: 38 nM
concentration at 4 h [9]: 4 ng/mL
Cmax [10]: 41.5 ng/mL
half-life [11]: 1.9 h
AUC(0-t) [12]: 109 ng·h/mL
EC50 [3]: 0.095 nM
clearance [13]: 17.7 mL/min/kg
concentration at 4 h [14]: 8.4 ng/mL
SMILES: COC(=O)N[C@@H](C(=O)N1CCC[C@H]1c1ncc(-c2ccc(N3CCC(c4cnc([C@@H]5CCCN5C(=O)[C@H](NC(=O)OC)c5ccccc5)[nH]4)CC3)c(F)c2)[nH]1)c1ccccc1

EC50 [1]: 14 nM
EC50 [3]: 0.033 nM
SMILES: COC(=O)N[C@@H](C(=O)N1CCC[C@H]1c1ncc(-c2cc(F)c(N3CCC(c4cnc([C@@H]5CCCN5C(=O)[C@H](NC(=O)OC)c5ccccc5)[nH]4)CC3)c(F)c2)[nH]1)c1ccccc1

EC50 [1]: 5.2 nM
EC50 [3]: 0.061 nM
SMILES: COC(=O)N[C@@H](C(=O)N1CCC[C@H]1c1ncc(-c2ccc([C@H]3CC[C@H](c4cnc([C@@H]5CCCN5C(=O)[C@H](NC(=O)OC)c5ccccc5)[nH]4)CC3)cc2)[nH]1)c1ccccc1

concentration at 4 h [16]: 665 ng/mL
clearance [17]: 23.7 mL/min/kg
Cmax [18]: 554 ng/mL
Vd [19]: 1.53 L/kg
concentration at 4 h [20]: 108 ng/mL
half-life [21]: 1.33 h
EC50 [1]: 2 nM
solubility [15]: 66.3 µg/mL (≈ 89 µM)
Tmax [22]: 0.67 h
bioavailability [23]: 44.2%
EC50 [3]: 0.05 nM
AUC(0-t) [24]: 1540 ng·h/mL
AUC(0-t) [25]: 706 ng·h/mL
SMILES: COC(=O)N[C@H](C(=O)N1CCC[C@H]1c1ncc(-c2ccc([C@H]3CC[C@H](c4cnc([C@@H]5CCCN5C(=O)[C@@H](NC(=O)OC)C(C)C)[nH]4)CC3)cc2)[nH]1)C(C)C

EC50 [1]: > 100 nM
EC50 [3]: 1.3 nM
SMILES: COC(=O)N[C@H](C(=O)N1CCC[C@H]1c1ncc(-c2ccc([C@H]3CC[C@](C)(c4cnc([C@@H]5CCCN5C(=O)[C@@H](NC(=O)OC)C(C)C)[nH]4)CC3)cc2)[nH]1)C(C)C

EC50 [1]: 38 nM
EC50 [3]: 0.05 nM
SMILES: COC(=O)N[C@@H](C(=O)N1CCC[C@H]1c1ncc(-c2cc(F)c(N3CCC(c4cnc([C@@H]5COCCN5C(=O)[C@H](NC(=O)OC)c5ccccc5)[nH]4)CC3)c(F)c2)[nH]1)c1ccccc1

Reference: ChEMBL document CHEMBL3351465, “Discovery of functionalized bisimidazoles bearing cyclic aliphatic-phenyl motifs as HCV NS5A inhibitors” (Bioorg Med Chem Lett, 2014)
